In PMC8459971, “Evaluation of the hepatotoxicity of the novel GPR40 (FFAR1) agonist CPL207280 in the rat and monkey” (PLoS ONE, 2021):
Where “and” joins values, the source holds several entries; their conditions need not be identical. Equal entries are not always repeated.

Legend:
HepG2 cells = assay: Respiration in hepatocytes (Seahorse XF Mito stress test); format: cell-based, human
[1] = Stability in microsomes, dog; format: in vitro ADME; settings: for average DEG [%]: dog microsomes, with cofactors
Procedure: (§1) The final incubation volume was 500 μL. Two control compounds (verapamil and donepezil) were included for each microsomal species, along with the appropriate vehicle control. The reactions were terminated by transferring 50 μL of incubate to 100 μL methanol containing an internal standard (metoprolol) at appropriate time points (0, 10, 20, 40, 60, and 120 min for the test compound and 0, 5, 10, 20, 40, and 60 min for the control compounds). The termination plates were centrifuged at 4000 x g at 4°C for 30 min to precipitate the protein. The supernatants were then collected for analysis, and LC-MS/MS was used for detection purposes. The system consisted of an Acquity™ Binary Solvent Manager, Acquity™ 4-position heated column manager, 2777 Ultra High Pressure Autosampler, and a Xevo-TQ MS triple quadrupole mass spectrometer (Waters Ltd., Herts, UK). This process was carried out twice.

[2] = Stability in microsomes, monkey; format: in vitro ADME; settings: for average DEG [%]: monkey microsomes, with cofactors
Procedure: as §1

NTCP = biological target: T1, NTCP (Homo sapiens, UniProt Q14973); assay: Uptake transporter inhibition assay, NTCP; format: cell-based; settings: for Accumulation (counts per minute; CPM) HEK293-NTCP / Accumulation (counts per minute; CPM) HEK293FT-MOCK: NTCP
T1 construct: expressed in transfected cells; host or cells: HEK cells
T1 sequence (Q14973 1-349): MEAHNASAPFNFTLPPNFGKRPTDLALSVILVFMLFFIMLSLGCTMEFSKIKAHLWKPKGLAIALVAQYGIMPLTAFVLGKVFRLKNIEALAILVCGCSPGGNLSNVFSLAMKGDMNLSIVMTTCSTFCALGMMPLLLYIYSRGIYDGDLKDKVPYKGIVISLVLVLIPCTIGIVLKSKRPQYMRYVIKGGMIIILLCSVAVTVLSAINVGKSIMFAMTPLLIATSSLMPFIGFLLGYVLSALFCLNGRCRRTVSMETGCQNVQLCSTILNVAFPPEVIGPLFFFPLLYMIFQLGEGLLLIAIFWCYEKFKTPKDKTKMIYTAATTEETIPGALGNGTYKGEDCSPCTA
Procedure: For the uptake transporter inhibition assay, cells were washed twice with 100 μL of the appropriate buffer (HK, pH 7.4) for OATP1B1, followed by HBSS (pH 7.4) for (NTCP, OAT1, OAT2v1, OATP1A2, and OATP1B3). Uptake experiments were carried out at 37 ± 1°C in 50 μL of the respective buffer containing the probe substrate and the compound or solvent.

MRP3 = MRP3 (Homo sapiens, UniProt O15438); assay: Vesicular transport inhibition assay, MRP3; settings: for Accumulation (counts per minute; CPM) with AMP / Accumulation (counts per minute; CPM) with ATP: MRP3;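 also: membrane vesicles with radiolabelled probe substrate and 2 mM glutathione, 4 mM ATP versus AMP background control, vesicle-trapped substrate quantified by liquid scintillation counting after filtration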;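 as to Accumulation (counts per minute; CPM) with AMP: ATP 4 mM vs AMP background separates transporter uptake from diffusion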;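 as to Accumulation (counts per minute; CPM) with ATP: ATP 4 mM vs AMP background separates transporter uptake from diffusion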
Procedure: In the vesicular transport inhibition assay (for BSEP, MRP) compounds were incubated with membrane vesicle preparations and the probe substrate. Incubations were carried out in the presence of 4 mM ATP or AMP to distinguish between transporter-mediated uptake and passive diffusion into the vesicles. For MRP2 and MRP3, reactions were carried out in the presence of 2 mM glutathione. Compounds were added to the reaction mixture in 0.75 μL of solvent (1% of the final incubation volume). […] Reactions were initiated by the addition of 25 μL of 12 mM MgATP (or 12 mM AMP in assay buffer as a background control) and preincubated separately. Reactions were quenched by the addition of 200 μL of ice-cold washing buffer and immediate filtration via glass fiber filters mounted on a 96-well plate (filter plate). The filters were washed (5 × 200 μL of ice-cold washing buffer), dried, and the amount of substrate inside the filtered vesicles was determined by liquid scintillation counting.

OATP1B3 = biological target: T2, OATP1B3 (Homo sapiens, UniProt Q9NPD5); assay: Uptake transporter inhibition assay, OATP1B3; settings: human, transformed HEK cells expressing OATP1B3, pH 7.4
T2 sequence (Q9NPD5 1-702): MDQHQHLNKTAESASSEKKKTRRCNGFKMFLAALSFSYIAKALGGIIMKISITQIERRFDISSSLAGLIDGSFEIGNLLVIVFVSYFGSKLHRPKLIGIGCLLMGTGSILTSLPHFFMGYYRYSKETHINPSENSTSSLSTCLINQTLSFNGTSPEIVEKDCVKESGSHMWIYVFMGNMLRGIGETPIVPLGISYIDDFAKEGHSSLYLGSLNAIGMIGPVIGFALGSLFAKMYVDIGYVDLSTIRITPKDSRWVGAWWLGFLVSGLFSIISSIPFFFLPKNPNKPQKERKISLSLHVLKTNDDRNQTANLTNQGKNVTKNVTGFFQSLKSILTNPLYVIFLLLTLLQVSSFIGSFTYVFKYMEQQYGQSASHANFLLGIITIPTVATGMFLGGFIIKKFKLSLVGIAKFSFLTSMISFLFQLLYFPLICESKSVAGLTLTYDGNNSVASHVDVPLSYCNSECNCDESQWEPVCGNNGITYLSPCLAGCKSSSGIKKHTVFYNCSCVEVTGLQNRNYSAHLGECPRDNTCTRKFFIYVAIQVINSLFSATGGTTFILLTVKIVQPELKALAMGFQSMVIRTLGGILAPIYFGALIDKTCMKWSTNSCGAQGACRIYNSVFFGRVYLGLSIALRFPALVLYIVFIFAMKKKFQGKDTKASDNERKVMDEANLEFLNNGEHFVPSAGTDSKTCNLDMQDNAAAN
Procedure: For the uptake transporter inhibition assay, cells were washed twice with 100 μL of the appropriate buffer (HK, pH 7.4) for OATP1B1, followed by HBSS (pH 7.4) for (NTCP, OAT1, OAT2v1, OATP1A2, and OATP1B3). Uptake experiments were carried out at 37 ± 1°C in 50 μL of the respective buffer containing the probe substrate and the compound or solvent. […] After the experiment, cells were washed twice with 100 μL of cold appropriate buffer and lysed with 50 μL of 0.1 M NaOH. Radiolabeled probe substrate transport was determined by measuring an aliquot (35 μL) from each well for liquid scintillation counting.

[3] = Dog (Beagle) microsomes, mean n = 2
[4] = Monkey (Cynomolgus) microsomes, mean n = 2

MRP3, sequence (O15438 whole entry, the tested form may be a part): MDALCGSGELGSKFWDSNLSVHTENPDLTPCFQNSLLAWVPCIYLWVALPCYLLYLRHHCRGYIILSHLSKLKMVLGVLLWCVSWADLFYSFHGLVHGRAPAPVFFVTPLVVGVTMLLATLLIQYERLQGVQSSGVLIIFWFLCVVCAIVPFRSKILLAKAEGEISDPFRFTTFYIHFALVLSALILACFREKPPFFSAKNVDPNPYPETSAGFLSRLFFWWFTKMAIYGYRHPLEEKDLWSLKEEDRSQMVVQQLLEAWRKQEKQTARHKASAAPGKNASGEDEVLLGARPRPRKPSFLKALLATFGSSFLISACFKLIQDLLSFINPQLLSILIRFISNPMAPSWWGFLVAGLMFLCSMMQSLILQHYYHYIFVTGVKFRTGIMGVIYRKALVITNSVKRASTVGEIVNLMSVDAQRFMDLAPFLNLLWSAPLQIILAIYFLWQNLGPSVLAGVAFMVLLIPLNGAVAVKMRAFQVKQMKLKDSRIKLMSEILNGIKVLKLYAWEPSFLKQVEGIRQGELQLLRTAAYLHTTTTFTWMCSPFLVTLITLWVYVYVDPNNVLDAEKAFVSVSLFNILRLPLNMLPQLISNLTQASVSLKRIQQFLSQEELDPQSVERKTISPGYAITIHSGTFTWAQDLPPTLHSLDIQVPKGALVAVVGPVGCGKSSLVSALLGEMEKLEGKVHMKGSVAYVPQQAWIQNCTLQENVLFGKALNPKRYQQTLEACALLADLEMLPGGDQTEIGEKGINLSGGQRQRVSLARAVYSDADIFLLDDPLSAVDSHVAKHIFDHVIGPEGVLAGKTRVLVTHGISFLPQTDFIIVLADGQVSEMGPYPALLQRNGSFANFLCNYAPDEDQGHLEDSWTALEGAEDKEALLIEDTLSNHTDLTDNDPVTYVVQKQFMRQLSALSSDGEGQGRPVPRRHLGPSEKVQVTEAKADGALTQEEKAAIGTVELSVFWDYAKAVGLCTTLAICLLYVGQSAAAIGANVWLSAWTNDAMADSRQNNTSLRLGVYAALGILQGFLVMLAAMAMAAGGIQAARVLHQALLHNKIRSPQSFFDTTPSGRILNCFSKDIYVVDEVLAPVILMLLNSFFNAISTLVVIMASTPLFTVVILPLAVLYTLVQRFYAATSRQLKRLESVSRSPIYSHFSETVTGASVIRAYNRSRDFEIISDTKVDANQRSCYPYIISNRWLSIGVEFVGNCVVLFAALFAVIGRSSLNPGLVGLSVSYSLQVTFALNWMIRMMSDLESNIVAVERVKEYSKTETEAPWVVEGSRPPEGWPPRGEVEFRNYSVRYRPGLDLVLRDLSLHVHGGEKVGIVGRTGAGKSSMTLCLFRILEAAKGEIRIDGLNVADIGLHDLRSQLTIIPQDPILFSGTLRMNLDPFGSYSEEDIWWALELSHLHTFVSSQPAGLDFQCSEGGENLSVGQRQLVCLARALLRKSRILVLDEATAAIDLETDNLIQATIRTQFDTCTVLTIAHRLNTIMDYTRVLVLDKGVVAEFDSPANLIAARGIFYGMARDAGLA

CC#C[C@@H](CC(=O)O)c1ccc(OCC(C)=C(C)C)cc1 [CPL207280]
effect on ATP synthesis (HepG2 cells; HepG2, Seahorse XF): did not alter ATP synthesis
effect on oxygen consumption rate / basal respiration (HepG2 cells; HepG2, Seahorse XF): reduced basal and maximal respiration at the highest concentration of 100 μM
effect on respiration (HepG2 cells; hepatocytes, Seahorse XF, 100 μM): slight respiration inhibition
half-life at 3 μM [1, 3]: 81 min
microsomal CLint at 3 μM [1, 3]: 17.1 µL/min/mg
average DEG [%] ([1]; 0 min): 100.0%
average DEG [%] ([1]; 20 min): 86.5%
average DEG [%] ([1]; 40 min): 74.9%
average DEG [%] ([1]; 60 min): 59.3%
half-life at 3 μM [2, 4]: 23 min
microsomal CLint at 3 μM [2, 4]: 60.9 µL/min/mg
average DEG [%] ([2]; 0 min): 100.0%
average DEG [%] ([2]; 20 min): 64.8%
average DEG [%] ([2]; 40 min): 34.1%
average DEG [%] ([2]; 60 min): 16.3%
Accumulation (counts per minute; CPM) HEK293-NTCP (NTCP; conc 0.10 µM): 4707 CPM and 4966 CPM
Accumulation (counts per minute; CPM) HEK293FT-MOCK (NTCP; conc 0.10 µM): 25 CPM
Accumulation (counts per minute; CPM) HEK293-NTCP (NTCP; conc 1.00 µM): 4654 CPM and 4992 CPM
Accumulation (counts per minute; CPM) HEK293FT-MOCK (NTCP; conc 1.00 µM): 29 CPM and 25 CPM
Accumulation (counts per minute; CPM) HEK293-NTCP (NTCP; conc 3.00 µM): 4021 CPM and 4291 CPM
Accumulation (counts per minute; CPM) HEK293FT-MOCK (NTCP; conc 3.00 µM): 19 CPM and 23 CPM
Accumulation (counts per minute; CPM) HEK293-NTCP (NTCP; conc 10.00 µM): 3614 CPM and 3535 CPM
Accumulation (counts per minute; CPM) HEK293FT-MOCK (NTCP; conc 10.00 µM): 24 CPM and 36 CPM
Accumulation (counts per minute; CPM) HEK293-NTCP (NTCP; conc 30.00 µM): 2611 CPM and 3022 CPM
Accumulation (counts per minute; CPM) HEK293FT-MOCK (NTCP; conc 30.00 µM): 21 CPM
Accumulation (counts per minute; CPM) HEK293-NTCP (NTCP; conc 100.00 µM): 1462 CPM and 1666 CPM
Accumulation (counts per minute; CPM) HEK293FT-MOCK (NTCP; conc 100.00 µM): 25 CPM and 27 CPM
Accumulation (counts per minute; CPM) HEK293-NTCP (NTCP; conc 300.00 µM): 771 CPM and 846 CPM
Accumulation (counts per minute; CPM) HEK293FT-MOCK (NTCP; conc 300.00 µM): 29 CPM and 23 CPM
IC50 (NTCP; transformed HEK cells, up to 300μM, n = 2): 46.8 µM
Accumulation (counts per minute; CPM) with AMP (MRP3; conc 0.10 µM): 240 CPM and 237 CPM
Accumulation (counts per minute; CPM) with ATP (MRP3; conc 0.10 µM): 3273 CPM and 4152 CPM
Accumulation (counts per minute; CPM) with AMP (MRP3; conc 1.00 µM): 221 CPM and 228 CPM
Accumulation (counts per minute; CPM) with ATP (MRP3; conc 1.00 µM): 4818 CPM and 3968 CPM
Accumulation (counts per minute; CPM) with AMP (MRP3; conc 3.00 µM): 249 CPM and 236 CPM
Accumulation (counts per minute; CPM) with ATP (MRP3; conc 3.00 µM): 4175 CPM and 4726 CPM
Accumulation (counts per minute; CPM) with AMP (MRP3; conc 10.00 µM): 274 CPM and 219 CPM
Accumulation (counts per minute; CPM) with ATP (MRP3; conc 10.00 µM): 3924 CPM and 3961 CPM
Accumulation (counts per minute; CPM) with AMP (MRP3; conc 30.00 µM): 231 CPM and 249 CPM
Accumulation (counts per minute; CPM) with ATP (MRP3; conc 30.00 µM): 5849 CPM and 5611 CPM
Accumulation (counts per minute; CPM) with AMP (MRP3; conc 100.00 µM): 250 CPM and 247 CPM
Accumulation (counts per minute; CPM) with ATP (MRP3; conc 100.00 µM): 5885 CPM and 4953 CPM
Accumulation (counts per minute; CPM) with AMP (MRP3; conc 300.00 µM): 206 CPM and 163 CPM
Accumulation (counts per minute; CPM) with ATP (MRP3; conc 300.00 µM): 6861 CPM and 6621 CPM
MRP3 Estimated IC50 (95% CI of IC50) (MRP3; vesicles, up to 300μM, n = 2): no affinity
IC50 (OATP1B3): 42.9 µM
